The record followed here is US5747660A, “Nucleic acid encoding prostaglandin F2α receptor regulatory protein” (priority 1995, dated 1998).

In experiment [1] the target is prostaglandin F2α receptor (FP), cDNA construct whose species the place does not tell.
Experiment [2] concerns the target rat prostaglandin F2α receptor regulatory protein (FPRP) (rat).
For experiment [3], the system named is prostaglandin F2α receptor (FP). The experiment in a line: [3H]PGF2α specific binding to COS cells cotransfected with FP cDNA and a test cDNA construct. Format: cell-based, rat, mouse. Conditions: COS cells cotransfected with FP + the named DNA; FP alone = 100.
Experiment [4] has the same test system. The experiment in a line: Cotransfection of a third construct along with FP and FPRP, [3H]PGF2α binding. Format: cell-based. As to conditions: FP + FPRP + the named third construct; FP + pSG5 = 100. The text has this:
Therefore, a strategy based on cotransfection of a third construct (along with FP and FPRP) was pursued. These third party constructs included ones coding for the protease inhibitors alpha-l trypsin inhibitor and crmA, an inhibitor of cell death, bcl2, and few nonspecific control molecules including the vitamin D receptor, a secreted immunoglobulin molecule, and the empty parent vector pSG5 only. All groups and treatments were compared with control treatment of FP+pSG5 vs. FP+FPRP.

For experiment [5] the test system is unchanged. Put plainly: Effect of intracellular messenger altering agents on [3H]PGF2α binding and on FPRP inhibition of it. It is filed as cell-based. Conditions: for effect of agent on FPRP inhibition of [^3 H]PGF2α binding (words): FP + FPRP transfected cells pretreated with the agent; for % Control [^3 H]PGF2α Binding, FP + FPRP: FP + FPRP transfected cells treated with the agent; for % Control [^3 H]PGF2α Binding, FP + pSG5: FP + pSG5 transfected cells treated with the agent; for effect of agent on basal [^3 H]PGF2α binding: FP transfected cells pretreated with the agent; for % Inhibition (FPRP inhibition of [^3 H]PGF2α binding): in presence of the agent at the concentration/time given. As for the experimental part:
In a third experiment, transfected cells were treated for 30 min with exposure to the following: phorbol 12-myristate 13-acetate 10^-8 M, prostaglandin E1, 10^-7 M, A23187 10^-6 M, okadaic acid 10^-6 M, or 8-Br-cAMP 10^-5 M (Table 4).
The effect of brefeldin A (3 μg/ml, 2 hr), chloroquine (100 μM, 6 hr) and tunicamysin (2.5 μg/ml, 20 hr) was determined.

Molecule alpha-1 trypsin inhibitor registered a % control ^3 H!PGF2α specific binding, co-transfection in experiment [1] of 141 % control. The molecule further yielded a % control ^3 H!PGF2α binding, third construct co-transfected with FP and FPRP in experiment [2] of 38 % control.
On to βPDGF Receptor, for which, in experiment [1], the % control ^3 H!PGF2α specific binding, co-transfection stood at 90 % control.
Regarding “1 Trypsin Inhibitor: protease inhibitor alpha-l trypsin inhibitor, cotransfected construct”, the “% CONTROL, [^3 H]PGF2α specific binding” value in experiment [3] came to 141 ± 3%. Further, the “% Control [^3 H]PGF2α Binding” value in experiment [4] stood at 38 ± 3%.
The corresponding values for “Vitamin D receptor: over-expressed control protein, cotransfected construct” are 131 ± 7% and 36 ± 3%.
With `C[C@H]1CCC/C=C/[C@@H]2C[C@H](O)C[C@H]2[C@H](O)/C=C/C(=O)O1` [Brefeldin A, brefeldin A], in experiment [5], the “effect of agent on FPRP inhibition of [^3 H]PGF2α binding (words)” value (“effect of agent on FPRP inhibition … (words)” below) is recorded as “no effect”; the “% Control [^3 H]PGF2α Binding, FP + FPRP” value is recorded as 27 ± 3%; the “% Control [^3 H]PGF2α Binding, FP + pSG5” value worked out at 91 ± 3%; the “effect of agent on basal [^3 H]PGF2α binding” value is recorded as “little or no effect”. In addition, the “% Inhibition (FPRP inhibition of [^3 H]PGF2α binding)” value (from here on “% Inhibition”) in experiment [5] is recorded as 70%. In addition, the “effect of agent on FPRP inhibition … (words)” value in experiment [5] (listed as brefeldin A) is “little or no effect”.
Turning to Prolactin Receptor, the % control ^3 H!PGF2α specific binding, co-transfection in experiment [1] was 130 % control.
In turn, Vitamin D receptor displayed a % control ^3 H!PGF2α specific binding, co-transfection in experiment [1] of 131 % control. The % control ^3 H!PGF2α binding, third construct co-transfected with FP and FPRP in experiment [2] came to 36 % control.
Take tunicamycin: in experiment [5], the “effect of agent on FPRP inhibition … (words)” value is recorded as “approximately the same extent”; the “% Control [^3 H]PGF2α Binding, FP + FPRP” value was 23 ± 3%; the “% Control [^3 H]PGF2α Binding, FP + pSG5” value worked out at 46 ± 3%; the “effect of agent on basal [^3 H]PGF2α binding” value is “decreased”. For the same molecule, the “% Inhibition” value in experiment [5] is recorded as 50%.
The corresponding values for `CCN(CC)CCCC(C)Nc1ccnc2cc(Cl)ccc12` (stereo not drawn) [Chloroquine, chloroquine] are “little or no effect”, 37 ± 3%, 91 ± 3%, “little or no effect” and 59%.
Turning to `Nc1ncnc2c1nc(Br)n2[C@@H]1O[C@@H]2COP(=O)(O)O[C@H]2[C@H]1O` [8-Br-cAMP], in experiment [5], the “% Control [^3 H]PGF2α Binding, FP + FPRP” value was found to be 52 ± 3%; the “% Control [^3 H]PGF2α Binding, FP + pSG5” value amounted to 94 ± 6%; the “% Inhibition” value stood at 45%.
For Progesterone Receptor, the % control ^3 H!PGF2α specific binding, co-transfection in experiment [1] came out at 103 % control.
`CCCCC[C@H](O)/C=C/[C@H]1[C@H](O)CC(=O)[C@@H]1CCCCCCC(=O)O` [PGE1, prostaglandin E1]: in experiment [5], the “% Control [^3 H]PGF2α Binding, FP + FPRP” value is 51 ± 3%; the “% Control [^3 H]PGF2α Binding, FP + pSG5” value is on record as 100 ± 3%; the “% Inhibition” value was found to be 49%.
The corresponding values for `CNc1ccc2oc(C[C@H]3O[C@@]4(CC[C@H]3C)O[C@H]([C@H](C)C(=O)c3ccc[nH]3)[C@H](C)C[C@H]4C)nc2c1C(=O)O` [Calcium ionophore A23187] are 51 ± 6%, 102 ± 6% and 50%.
As to `C=C1[C@@H](O)[C@@H]2O[C@]3(CC[C@H](/C=C/[C@@H](C)[C@@H]4CC(C)=C[C@@]5(O[C@H](C[C@@](C)(O)C(=O)O)CC[C@H]5O)O4)O3)CC[C@H]2O[C@@H]1[C@@H](O)C[C@H](C)[C@H]1O[C@@]2(CCCCO2)CC[C@H]1C` [Okadaic acid, okadaic acid], in experiment [5], the “% Control [^3 H]PGF2α Binding, FP + FPRP” value is listed as 45 ± 3%; the “% Control [^3 H]PGF2α Binding, FP + pSG5” value is recorded as 94 ± 3%; the “% Inhibition” value is reported as 52%.
In experiment [1], bcl-2 yielded a % control ^3 H!PGF2α specific binding, co-transfection of 84 % control. This molecule showed a % control ^3 H!PGF2α binding, third construct co-transfected with FP and FPRP in experiment [2] of 30 % control.
Turning to crmA, in experiment [1], the % control ^3 H!PGF2α specific binding, co-transfection came out at 141 % control. In addition, the % control ^3 H!PGF2α binding, third construct co-transfected with FP and FPRP in experiment [2] is 29 % control.
As to `CCCCCCCCCCCCCC(=O)OC1C(C)C2(O)C(C=C(CO)CC3(O)C(=O)C(C)=CC32)C2C(C)(C)C12OC(C)=O` (stereo not drawn) [Phorbol 12-myristate 13-acetate, phorbol 12-myristate 13-acetate], in experiment [5], the “% Control [^3 H]PGF2α Binding, FP + FPRP” value was 54 ± 3%; the “% Control [^3 H]PGF2α Binding, FP + pSG5” value is recorded as 105 ± 7%; the “% Inhibition” value is reported as 50%.
Regarding TGN38, the % control ^3 H!PGF2α specific binding, co-transfection in experiment [1] is 135 % control.
With “bcl-2: an inhibitor of cell death, cotransfected construct”, the “% CONTROL, [^3 H]PGF2α specific binding” value in experiment [3] is 84 ± 5%. For the same molecule, the “% Control [^3 H]PGF2α Binding” value in experiment [4] is 30 ± 3%.

B1: Prolactin Receptor: over-expressed control protein, cotransfected construct (protein, UniProt P16471 25-622, looked up)
Prolactin receptor: QLPPGKPEIFKCRSPNKETFTCWWRPGTDGGLPTNYSLTYHREGETLMHECPDYITGGPNSCHFGKQYTSMWRTYIMMVNATNQMGSSFSDELYVDVTYIVQPDPPLELAVEVKQPEDRKPYLWIKWSPPTLIDLKTGWFTLLYEIRLKPEKAAEWEIHFAGQQTEFKILSLHPGQKYLVQVRCKPDHGYWSAWSPATFIQIPSDFTMNDTTVWISVAVLSAVICLIIVWAVALKGYSMVTCIFPPVPGPKIKGFDAHLLEKGKSEELLSALGCQDFPPTSDYEDLLVEYLEVDDSEDQHLMSVHSKEHPSQGMKPTYLDPDTDSGRGSCDSPSLLSEKCEEPQANPSTFYDPEVIEKPENPETTHTWDPQCISMEGKIPYFHAGGSKCSTWPLPQPSQHNPRSSYHNITDVCELAVGPAGAPATLLNEAGKDALKSSQTIKSREEGKATQQREVESFHSETDQDTPWLLPQEKTPFGSAKPLDYVEIHKVNKDGALSLLPKQRENSGKPKKPGTPENNKEYAKVSGVMDNNILVLVPDPHAKNVACFEESAKEAPPSLEQNQAEKALANFTATSSKCRLQLGGLDYLDPACFTHSFH
modifications: over-expressed construct
Regarding B1, the “% CONTROL, [^3 H]PGF2α specific binding” value in experiment [3] is listed as 130 ± 7%.

B2: Progesterone Receptor: over-expressed control protein, cotransfected construct (protein, UniProt P06401 1-933, looked up)
Progesterone receptor: MTELKAKGPRAPHVAGGPPSPEVGSPLLCRPAAGPFPGSQTSDTLPEVSAIPISLDGLLFPRPCQGQDPSDEKTQDQQSLSDVEGAYSRAEATRGAGGSSSSPPEKDSGLLDSVLDTLLAPSGPGQSQPSPPACEVTSSWCLFGPELPEDPPAAPATQRVLSPLMSRSGCKVGDSSGTAAAHKVLPRGLSPARQLLLPASESPHWSGAPVKPSPQAAAVEVEEEDGSESEESAGPLLKGKPRALGGAAAGGGAAAVPPGAAAGGVALVPKEDSRFSAPRVALVEQDAPMAPGRSPLATTVMDFIHVPILPLNHALLAARTRQLLEDESYDGGAGAASAFAPPRSSPCASSTPVAVGDFPDCAYPPDAEPKDDAYPLYSDFQPPALKIKEEEEGAEASARSPRSYLVAGANPAAFPDFPLGPPPPLPPRATPSRPGEAAVTAAPASASVSSASSSGSTLECILYKAEGAPPQQGPFAPPPCKAPGASGCLLPRDGLPSTSASAAAAGAAPALYPALGLNGLPQLGYQAAVLKEGLPQVYPPYLNYLRPDSEASQSPQYSFESLPQKICLICGDEASGCHYGVLTCGSCKVFFKRAMEGQHNYLCAGRNDCIVDKIRRKNCPACRLRKCCQAGMVLGGRKFKKFNKVRVVRALDAVALPQPVGVPNESQALSQRFTFSPGQDIQLIPPLINLLMSIEPDVIYAGHDNTKPDTSSSLLTSLNQLGERQLLSVVKWSKSLPGFRNLHIDDQITLIQYSWMSLMVFGLGWRSYKHVSGQMLYFAPDLILNEQRMKESSFYSLCLTMWQIPQEFVKLQVSQEEFLCMKVLLLLNTIPLEGLRSQTQFEEMRSSYIRELIKAIGLRQKGVVSSSQRFYQLTKLLDNLHDLVKQLHLYCLNTFIQSRALSVEFPEMMSEVIAAQLPKILAGMVKPLLFHKK
For the molecule B2, in experiment [3], the “% CONTROL, [^3 H]PGF2α specific binding” value is on record as 103 ± 5%.
